Data reported in patent publication US20120040951A1, “HETEROARYL COMPOUNDS USEFUL AS RAF KINASE INHIBITORS” (priority 2008, published 2012).

Experiments:
[1] = test system: phospho-ERK in melanoma derived WM-266-4 cells; test: Mechanistic cellular assay for Raf kinase activity (phospho-ERK, Bio-Plex); type: cell-based; settings: Homo sapiens, treated 1-2 hr at 37° C., serum free medium, read-out: pERK EC50
Method in brief: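 WM-266-4 melanoma cells (wild-type/V600D BRaf) grown overnight in 10% FBS RPMI, then treated 1–2 h at 37 °C in serum-free RPMI with eight 3-fold dilutions of compound (from 5 mM DMSO stock, 1000× dilution). Lysate phospho-ERK1,2 quantified by Bio-Plex bead immunoassay.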

V599E Raf = V599E Raf (Homo sapiens, UniProt P15056, V600E); test: Biochemical FRET assay, mutant Raf (phosphorylation of MEK); settings: 0.125 nM V599E Raf, 100 nM biotin-MEK, 25 μM ATP, read-out: Raf (mut) inhibition
Procedure: (1) Biochemical FRET Assay […]
Inhibitors were diluted 4-fold in 100% DMSO and added to a final concentration of 10 μM to 40 μM to a solution containing 100 nM biotin-MEK, 0.125 nM V599E Raf in 50 mM HEPES, pH 7.4, 60 mM NaCl, 3 mM MgCl2, 2 mM DTT, 0.25 mM MnCl2, 0.01% BSA, and 0.01% Tween-20 and incubated for 20 minutes at room temperature. The kinase reaction was started by the addition of 25 μM ATP to a final volume of 45 μl and allowed to progress for 60 minutes. The reaction was stopped with 15 mM EDTA and 20 nM Streptavidin-APC, 2.5 nM Polyclonal anti p-MEK1/2 (Ser217/221), 2.5 nM Eu-labeled anti-rabbit IgG were added in Lance detection buffer and 5% Superblock in PBS for a final volume of 100 μl. The detection reaction was incubated for 90 minutes at room temperature and then read on an Analyst plate reader using standard TR-FRET (time resolved fluorescence resonance energy transfer) settings for Eu and APC.
Compounds having an activity designated as “A” provided an IC50≦100 nM; compounds having an activity designated as “B” provided an IC50 of 100-1000 nM; and compounds having an activity designated as “C” provided an IC50 of 1000-10,000 nM.

Chain of V599E Raf (P15056 whole entry V600E): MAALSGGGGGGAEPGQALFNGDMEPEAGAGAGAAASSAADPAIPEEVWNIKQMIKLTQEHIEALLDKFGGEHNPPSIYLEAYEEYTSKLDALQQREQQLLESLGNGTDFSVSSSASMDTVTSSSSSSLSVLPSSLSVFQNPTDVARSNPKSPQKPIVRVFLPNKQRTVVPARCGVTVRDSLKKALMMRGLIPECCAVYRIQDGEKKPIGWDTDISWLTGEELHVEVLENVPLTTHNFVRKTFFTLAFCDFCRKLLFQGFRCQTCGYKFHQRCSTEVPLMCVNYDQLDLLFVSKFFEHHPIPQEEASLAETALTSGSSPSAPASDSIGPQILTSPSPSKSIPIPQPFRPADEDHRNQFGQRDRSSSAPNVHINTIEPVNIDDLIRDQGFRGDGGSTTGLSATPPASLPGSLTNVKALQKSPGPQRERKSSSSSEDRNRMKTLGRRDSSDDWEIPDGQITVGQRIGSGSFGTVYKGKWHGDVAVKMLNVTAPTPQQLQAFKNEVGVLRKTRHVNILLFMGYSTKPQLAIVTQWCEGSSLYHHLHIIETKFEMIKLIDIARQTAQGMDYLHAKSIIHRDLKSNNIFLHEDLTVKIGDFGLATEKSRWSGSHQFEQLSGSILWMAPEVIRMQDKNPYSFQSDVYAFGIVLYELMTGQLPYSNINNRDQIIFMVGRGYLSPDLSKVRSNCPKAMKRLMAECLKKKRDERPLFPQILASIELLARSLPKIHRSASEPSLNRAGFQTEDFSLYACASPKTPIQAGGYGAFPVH

Structure (SMILES)	EC50 [1] [nM]	IC50 (V599E Raf) [nM]
CC(NC(=O)c1cncc(N)c1)c1ncc(C(=O)Nc2cc(C(F)(F)F)c(Cl)cn2)s1 (stereo not shown) [Example 44]	1000 to 10000	≤ 100
C[C@@H](NC(=O)c1cc2c(cn1)ncn2C)c1cnc(Nc2cnc(C(C)(C)C)nc2)s1 [Example 241]	≤ 100	≤ 100
CC(NC(=O)c1cc2c(cn1)ncn2C)c1cnc(Nc2cc(S(=O)(=O)C(F)(F)F)ccc2Cl)cn1 (stereo not shown) [Example 276]	≤ 100	≤ 100
CCOc1cc(C(F)(F)F)ccc1Nc1ncc(C(C)NC(=O)c2cc3c(cn2)ncn3C)s1 (stereo not shown) [Example 283]	100 to 1000	≤ 100
CC(NC(=O)c1cc2c(cn1)ncn2C)c1ccc(Nc2ccc(C(F)(F)F)cc2)nc1 (stereo not shown) [Example 339]	100 to 1000	≤ 100
COc1cc(C(F)(F)F)ccc1Nc1cnc(C(C)NC(=O)c2cc3c(cn2)ncn3C)cn1 (stereo not shown) [Example 265b]	100 to 1000	≤ 100
CC(NC(=O)c1cc2c(cn1)ncn2C)c1cnc(Nc2ccc(C(F)(F)F)cc2)cn1 (stereo not shown) [Example 35]	≤ 100	≤ 100
C[C@@H](NC(=O)c1csc(-c2ccncc2)n1)c1ncc(C(=O)Nc2cc(C(F)(F)F)c(Cl)cn2)s1 [Example 97]	1000 to 10000	≤ 100
CCN1CCn2c(C(=O)NC(C)c3cnc(Nc4ccc(C(F)(F)F)cc4)s3)cnc2C1 (stereo not shown) [Example 318]	1000 to 10000	≤ 100
COC(=O)c1cc(Nc2ncc(C(C)NC(=O)c3cc4c(cn3)ncn4C)s2)cc(C(C)(C)C)c1 (stereo not shown) [Example 351]	100 to 1000	≤ 100
C[C@@H](NC(=O)c1cnc(C#N)n1C)c1ncc(C(=O)Nc2cc(C(F)(F)F)c(Cl)cn2)s1 [Example 150]	1000 to 10000	≤ 100
C[C@@H](NC(=O)c1cn[nH]c1-c1ccccc1)c1ncc(C(=O)Nc2cc(C(F)(F)F)c(Cl)cn2)s1 [Example 107]	100 to 1000	≤ 100
CC(NC(=O)c1cc2c(cn1)ncn2C1CCC1)c1cnc(Nc2ccc(C(F)(F)F)nc2)s1 (stereo not shown) [Example 292]	≤ 100	≤ 100
CC(C)N1CC(n2cnc3cnc(C(=O)N[C@H](C)c4cnc(Nc5ccc(C(F)(F)F)cc5)s4)cc32)C1 [Example 183]	≤ 100	≤ 100
Cc1cn(-c2cncc(C(=O)NC(C)c3ncc(C(=O)Nc4cc(C(F)(F)F)c(Cl)cn4)s3)c2)cn1 (stereo not shown) [Example 51]	1000 to 10000	100 to 1000
C[C@@H]1[C@]2(C)CC[C@@]1(C)[C@@H](NC(=O)c1cc([C@@H](C)NC(=O)c3cnn4ccccc34)no1)C2 [Example 215]		1000 to 10000
C[C@@H](NC(=O)c1cnn2ccccc12)c1cc(C(=O)NC2C[C@@H]3CC[C@H]2C3)on1 (stereo partly shown) [Example 213]		1000 to 10000
CC(NC(=O)c1cc2c(cn1)ncn2C)c1cnc(Nc2cc(C(=O)O)cc(C(C)(C)C)c2)s1 (stereo not shown) [Example 352]	1000 to 10000	100 to 1000
COc1cc(C(F)(F)F)ccc1Nc1ncc(C(C)NC(=O)c2cc3c(cn2)ncn3C)s1 (stereo not shown) [Example 244]	≤ 100	≤ 100
CCc1nc(C(C)(C)C)ncc1Nc1ncc(C(C)NC(=O)c2cc3c(cn2)ncn3C)s1 (stereo not shown) [Example 295]	≤ 100	100 to 1000
CC(NC(=O)c1cc2c(cn1)ncn2C1CCC1)c1cnc(Nc2ccc(Cl)c(C(F)(F)F)c2)cn1 (stereo not shown) [Example 234]	100 to 1000	≤ 100
C[C@@H](NC(=O)c1ccc2ncccc2c1)c1cc(C(=O)Nc2cnc(C(C)(C)C)nc2N)no1 [Example 65]	1000 to 10000	100 to 1000
C[C@@H](NC(=O)c1cnn2ccccc12)c1cc(C(=O)Nc2nc3ccc(F)cc3s2)on1 [Example 210]		100 to 1000
Cc1nn(C)c(C)c1C(=O)N[C@H](C)c1ncc(C(=O)Nc2cc(C(F)(F)F)c(Cl)cn2)s1 [Example 110]	1000 to 10000	≤ 100
C[C@@H](NC(=O)c1nc(NC(=O)OC(C)(C)C)cn1C)c1ncc(C(=O)Nc2cc(C(F)(F)F)c(Cl)cn2)s1 [Example 138]	1000 to 10000	100 to 1000

Structure (SMILES)	EC50 [1] [nM]	IC50 (V599E Raf) [nM]
CC(NC(=O)c1cc2c(cn1)ncn2C)c1cnc(Nc2cccc(S(=O)(=O)C(F)(F)F)c2)cn1 (stereo not shown) [Example 243]	≤ 100	≤ 100
CCN1CC[C@@H](n2cnc3cnc(C(=O)N[C@H](C)c4cnc(Nc5ccc(C(F)(F)F)cc5)s4)cc32)C1 [Example 28]	≤ 100	≤ 100
C[C@@H](NC(=O)c1ccc2ncccc2c1)c1ncc(C(=O)Nc2cc(C(F)(F)F)c(Cl)cn2)s1 [Example 58]	≤ 100	≤ 100
C[C@@H](NC(=O)c1cnn(-c2ccccn2)c1)c1ncc(C(=O)Nc2cc(C(F)(F)F)c(Cl)cn2)s1 [Example 119]	1000 to 10000	≤ 100
Cc1ccc(NC(=O)c2cc(C(C)(C)NC(=O)c3cnn4ccccc34)on2)cc1C(F)(F)F [Example 230]		100 to 1000
C[C@@H](NC(=O)c1cnn2ccccc12)c1cc(C(=O)NC2CC(C)(C)NC(C)(C)C2)on1 [Example 216]		1000 to 10000
CCN(CC)c1cnc2cnc(C(=O)NC(C)c3ncc(Nc4ccc(C(F)(F)F)cc4)s3)cn12 (stereo not shown) [Example 304]	100 to 1000	
COc1ncc(C(=O)N[C@H](C)c2ncc(C(=O)Nc3cc(C(F)(F)F)c(Cl)cn3)s2)n1C [Example 157]	1000 to 10000	
CC(NC(=O)c1cc2c(cn1)ncn2C)c1cnc(Nc2ccc(C(F)(F)F)cc2N(C)C)s1 (stereo not shown) [Example 275]	100 to 1000	
CC(NC(=O)c1cnn2cc(-c3cc(F)nc(F)c3)ccc12)c1nc(C(=O)Nc2cc(C(F)(F)F)c(Cl)cn2)cs1 (stereo not shown) [Example 325]	100 to 1000	
CC(NC(=O)c1cnn2cc(-c3ccc(F)nc3)ccc12)c1ncc(C(=O)Nc2cc(C(F)(F)F)c(Cl)cn2)s1 (stereo not shown) [Example 322]	100 to 1000	
C[C@@H](NC(=O)c1cncn1C)c1ncc(C(=O)Nc2cc(C(F)(F)F)c(Cl)cn2)s1 [Example 141]	100 to 1000	
C[C@@H](NC(=O)c1cnn2ccccc12)c1cc(C(=O)Nc2nc(C(C)(C)C)ncc2N)no1 [Example 228]		100 to 1000
C[C@@H](NC(=O)c1cnn(-c2cccnc2)c1)c1ncc(C(=O)Nc2cc(C(F)(F)F)c(Cl)cn2)s1 [Example 116]	100 to 1000	
Cc1c(C(=O)N[C@H](C)c2ncc(C(=O)Nc3cc(C(F)(F)F)c(Cl)cn3)s2)cnn1C [Example 115]	≤ 100	
CC(C)Cn1cnc2cnc(C(=O)NC(C)c3cnc(Nc4ccc(C(F)(F)F)cc4)s3)cc21 (stereo not shown) [Example 15]	≤ 100	
CC(NC(=O)c1cc2c(cn1)ncn2C)c1cnc(Nc2cccc(C(F)(F)F)n2)s1 (stereo not shown) [Example 253]	100 to 1000	
C[C@@H](NC(=O)c1c[nH]cn1)c1ncc(C(=O)Nc2cc(C(F)(F)F)c(Cl)cn2)s1 [Example 142]	1000 to 10000	
CC(NC(=O)c1cnn2cc(-c3cnc(N)nc3)ccc12)c1ncc(C(=O)Nc2cc(C(F)(F)F)c(Cl)cn2)s1 (stereo not shown) [Example 327]	≤ 100	
CC(NC(=O)c1cc2c(cn1)ncn2C)c1cnc(Nc2cccc(C(C)(C)C#N)c2)s1 (stereo not shown) [Example 252]	100 to 1000	
CC(NC(=O)c1cc2c(cn1)nc(N)n2C)c1cnc(Nc2ccc(C(F)(F)F)nc2)s1 (stereo not shown) [Example 293]	100 to 1000	
CC(NC(=O)c1cnn2cc(-c3cncc(F)c3)ccc12)c1ncc(C(=O)Nc2cc(C(F)(F)F)c(Cl)cn2)s1 (stereo not shown) [Example 329]	≤ 100	
C[C@@H](NC(=O)c1cc2c(cn1)ncn2C1CN(S(C)(=O)=O)C1)c1cnc(Nc2ccc(C(F)(F)F)cc2)cn1 [Example 345]	≤ 100	
CCNc1cnc2cnc(C(=O)NC(C)c3ncc(Nc4ccc(C(F)(F)F)cc4)s3)cn12 (stereo not shown) [Example 303]	100 to 1000	
CC(NC(=O)c1cnn2cc(-c3ccc(N4CCOCC4)nc3)ccc12)c1ncc(C(=O)Nc2cc(C(F)(F)F)c(Cl)cn2)s1 (stereo not shown) [Example 323]	≤ 100	
